Data as given in PubChem BioAssay (NCI).
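96-well plates; 48 h exposure; 5 concentrations. Endpoints by linear interpolation between flanking doses. Not reached: highest tested concentration assigned. TGI: concentration producing complete growth inhibition.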

How the values were obtained:
Assay in all cases: NCI anticancer screen, dose series, 48 h
LOX IMVI melanoma = system: LOX IMVI melanoma
HT29 colon = system: HT29 colon
T-47D breast = system: T-47D breast
HS 578T breast = system: HS 578T breast
A498 renal = system: A498 renal
MDA-N = system: MDA-N
HL-60(TB) leukemia = system: HL-60(TB) leukemia
ACHN renal = system: ACHN renal
RPMI-8226 leukemia = system: RPMI-8226 leukemia
OVCAR-3 ovarian = system: OVCAR-3 ovarian

Row | SMILES | TGI (LOX IMVI melanoma) [µM] | TGI (HT29 colon) [µM] | TGI (T-47D breast) [µM] | TGI (HS 578T breast) [µM] | TGI (A498 renal) [µM] | TGI (MDA-N) [µM] | TGI (HL-60(TB) leukemia) [µM] | TGI (ACHN renal) [µM] | TGI (RPMI-8226 leukemia) [µM] | TGI (OVCAR-3 ovarian) [µM]
1 | COc1cc(/C=C2\CC3C4CC=C5C[C@@H](O)CC[C@]5(C)C4CC[C@]3(C)\C2=N\O)cc(OC)c1OC (some centres not stated) | 63.2 | > 100 | 18.8 | > 100 | 42.6 | 69.6 | > 100 | 17.6 | 40 | 61.4
2 | CCCSc1ccc2[nH]c(N3C(=O)/C(=C/c4ccc(O)c(OC)c4)N=C3c3ccccc3)cc2c1 | > 100 | 88.9 | > 100 | 14.3 | 93 | 5.26 | 11.6 | > 100 | 34.3 | > 100
3 | CC(Nc1cccc(Cl)c1)c1ccncc1 (configuration not stated) | > 100 | > 100 | > 100 | > 100 | > 100 | > 100 |  | > 100 | > 100 | > 100
4 | COc1cc(OC)c(-n2[nH]c(=O)n(C)c2=O)c(OC)c1 | > 100 | > 100 | > 100 | > 100 | > 100 | > 100 | > 100 |  | > 100 | > 100
5 | COC(=O)[C@H](Cc1ccccc1)NC(=O)N(CCN(CCC#N)C(=O)N[C@H](C(=O)OC)C(C)C)c1ccccc1 | > 100 |  | > 100 | > 100 | > 100 | > 100 |  | > 100 | > 100 | > 100
6 | CCN(CC)P(=O)(c1ccc2c(c1)OCCOCCOCCOCCO2)N(CC)CC | > 100 |  | > 100 | > 100 | > 100 | > 100 | > 100 | > 100 | > 100 | 
7 | O=c1[nH]c2c(C(F)(F)F)c(Cl)c(-c3ccccc3)nc2o1 | > 100 | 51.6 | 90.9 | > 100 | > 100 | 44.8 | 13.7 | > 100 |  | 65.8
8 | CN(C)N1C(=C(C#N)C#N)C(c2ccccc2)CC1C#N (configuration not stated) | > 100 | > 100 | > 100 | > 100 | > 100 | > 100 | > 100 | > 100 | > 100 | 
9 | CCOC(=O)c1ccc(-c2onc(C)c2Br)[nH]1 |  | > 100 | > 100 | > 100 | > 100 | > 100 |  | > 100 | > 100 | > 100
10 | Cc1ccc(N=NC(=Nc2ccc(F)cc2)c2ccc(N(CCC#N)CCC#N)cc2)cc1 |  | > 100 | > 100 | > 100 | > 100 | > 100 |  | > 100 | > 100 | > 100
11 | CC1OC1C(=O)P(=O)(O)O (configuration not stated) | > 100 |  | > 100 | > 100 | > 100 | > 100 | > 100 | > 100 | > 100 | > 100
12 | CCN(CC)C1=Nc2ccccc2-n2ccnc2C1 | > 100 | > 100 | > 100 | > 100 | > 100 | > 100 | > 100 | > 100 |  | > 100
13 | O=C1c2cccnc2S(=O)(=O)N1c1ccc(Br)cc1 | > 100 | > 100 | > 100 | > 100 | > 100 | > 100 | 28.1 |  | > 100 | > 100
14 | COc1ccc(Nc2nc3ccccc3nc2-c2cccs2)cc1OC | > 10 | > 10 | > 10 | > 10 |  | > 10 | > 10 | > 10 | > 10 | > 10
15 | O=C1C(NS(=O)(=O)c2ccccc2)=C(n2ccnc2)C(=O)c2ccccc21 | > 100 | > 100 | > 100 | > 100 |  | > 100 | > 100 | > 100 | > 100 | > 100
16 | CN(C)CC1CCC/C(=C\c2ccc(Cl)c(Cl)c2)C1=O (configuration not stated) |  | > 33.9 | 5.71 | 9.51 | 26.9 | 12.7 | 4.06 | 15.1 | 1.03 | 13.4
17 | COC(=O)c1sc2nc(Nc3ccccc3)c(=Nc3ccccc3)sc2c1C | > 100 | > 100 | > 100 | > 100 | > 100 | > 100 | > 100 | > 100 | > 100 | 
18 | Cn1c2ccccc2n2c(=O)c(-c3ccc(Cl)cc3)nnc12 | > 100 | > 100 | > 100 | > 100 | > 100 | > 100 | > 100 | > 100 |  | 
19 | c1ccc(C/C(=N\Nc2nc3ccccc3[nH]2)c2ccccn2)cc1 | 8.1 | 5.23 | 15.6 | 20 | 1.37 | 12.8 |  | 3.06 | 0.131 | 
